Assay: RP, Thermo Scientific Hypersil GOLD, 1.9 µm, 40 °C, 0.4 mL/min; A: water + 0.1% formic acid, pH 3; B: acetonitrile + 0.1% formic acid, pH 3; gradient (min/%B) 0/0 1/0 11/100 13/100 14/0 16/0
Conditions: stereoisomer not certain

Structure (SMILES) | LC retention time [min]
NCC(O)c1ccccc1 (stereo not drawn) [PHENYLETHANOLAMINE] | 2.24
CC(CCC(=O)O)C1CCC2C3CCC4CC(O)CCC4(C)C3CCC12C (stereo not drawn) [LITHOCHOLATE] | 10.5
O=C(O)/C=C/c1cccc(O)c1 [trans-3-Hydroxycinnamic acid (m-Coumaric acid)] | 5.82
NC(CCCC(=O)O)C(=O)O (stereo not drawn) [AMINOADIPATE] | 0.67
CC(=O)NC(C(=O)O)C(C)C (racemic) [N-acetyl-DL-valine] | 4.62
OCC(O)c1ccc(O)c(O)c1 (stereo not drawn) [3-4-DIHYDROXYPHENYLGLYCOL] | 0.92
Cc1cc2nc[nH]c2cc1C [5-6 DIMETHYLBENZIMIDAZOLE] | 5.05
C[N+](C)(C)[O-] [trimethylamine N-oxide] | 0.64
CC(C=CC1=C(C)CCCC1(C)C)=CC=CC(C)=CC(=O)[O-] [RETINOATE] | 11.5
NC(=O)CCCCC1CCSS1 (stereo not drawn) [LIPOAMIDE] | 6.53
OCC1OCC(O)C(O)C1O [1-5-Anhydro-D-sorbitol] | 0.7
O=C(O)Cc1ccc(O)c(O)c1 [3-4-DIHYDROXYPHENYLACETATE] | 4.32
NC(CCO)C(=O)O (stereo not drawn) [HOMOSERINE] | 0.62
Cc1ncc(COP(=O)(O)O)c(C=O)c1O [PYRIDOXAL-PHOSPHATE] | 0.83
O=C(O)C1(O)CC(O)C(O)C(O)C1 (stereo not drawn) [QUINATE] | 0.68
O=C(O)c1cc(O)ccc1O [2-5-DIHYDROXYBENZOATE] | 4.52
Cc1cn(C2CC(O)C(COP(=O)(O)O)O2)c(=O)[nH]c1=O (stereo not drawn) [THYMIDINE-MONOPHOSPHATE] | 0.82
COC1OC(CO)C(O)C(O)C1O (stereo not drawn) [METHYL GALACTOSIDE] | 0.74
NCC(O)c1ccc(O)cc1 (stereo not drawn) [P-OCTOPAMINE] | 0.71
CCC(NC(=O)CCC(N)C(=O)O)C(=O)NCC(=O)O (stereo not drawn) [OPHTHALMATE] | 0.83
Cc1ncccc1C(N)=O [2-Methylnicotinamide] | 0.69
NC(C(=O)O)c1ccccc1 (stereo not drawn) [2-Phenylglycine] | 0.83
CCCCCCCCCCCCCCC=COCC(O)COP(=O)([O-])OCC[N+](C)(C)C (stereo not drawn) [C16_PlasmLPC] | 10.5
CC(=O)NC(C)C(=O)O (stereo not drawn) [N-ACETYLALANINE] | 1.24
CC(CCCC(C)(C)O)C1CCC2C3CC=C4CC(O)CCC4(C)C3CCC12C (stereo not drawn) [25-HYDROXYCHOLESTEROL] | 11.9

Structure (SMILES) | LC retention time [min]
Nc1ccnc(=O)[nH]1 [CYTOSINE] | 0.65
O=C/C=C/c1ccccc1 [Trans-Cinnamaldehyde] | 7.27
OCC1OC(OCC2OC(O)C(O)C(O)C2O)C(O)C(O)C1O (stereo not drawn) [MELIBIOSE] | 0.63
Cn1cnc2[nH]c(=O)[nH]c(=O)c21 [7-Methylxanthine] | 2.15
O=C(O)C(O)Cc1ccc(O)cc1 (stereo not drawn) [HYDROXYPHENYLLACTATE] | 4.38
NCCCCCN [CADAVERINE] | 0.55
O=C1C=CC(=O)N1 [MALEIMIDE] | 0.84
O=C(O)CNC(=O)c1ccccc1 [HIPPURATE] | 4.92
OCC1OC(OC2C(CO)OC(OC3C(CO)OC(O)C(O)C3O)C(O)C2O)C(O)C(O)C1O (stereo not drawn) [Maltotriose] | 0.61
O=c1c(O)c(-c2ccc(O)cc2O)oc2cc(O)cc(O)c12 [Morin hydrate] | 6.29
[NH3+]C(C(=O)[O-])C(O)c1ccccc1 (racemic) [L-Threo-3-Phenylserine (DL-3-Phenylserine)] | 1.14
O=c1cccc(O)[nH]1 [2-6-DIHYDROXYPYRIDINE] | 1.09
Cc1cc2nc3[nH]c(=O)[nH]c(=O)c3nc2cc1C [LUMICHROME] | 6.03
COc1cc(C(O)CN)ccc1O (stereo not drawn) [NORMETANEPHRINE] | 0.82
OCC1OC(OCC2OC(OCC3OC(OC4(CO)OC(CO)C(O)C4O)C(O)C(O)C3O)C(O)C(O)C2O)C(O)C(O)C1O (stereo not drawn) [STACHYOSE] | 0.67
O=c1ccn(C2OC(COP(=O)(O)OP(=O)(O)OP(=O)(O)O)C(O)C2O)c(=O)[nH]1 (stereo not drawn) [URIDINE TRIPHOSPHATE] | 0.6
O=c1ccn(C2CC(O)C(CO)O2)c(=O)[nH]1 (stereo not drawn) [DEOXYURIDINE] | 1.24
NC1(C(=O)O)CC1 [1-AMINOCYCLOPROPANECARBOXYLATE] | 0.64
O=C(O)C=Cc1cnc[nH]1 [UROCANATE] | 0.82
NCCS(=O)O [HYPOTAURINE] | 0.63
O=c1[nH]c(=O)c2[nH]c(=O)[nH]c2[nH]1 [URATE] | 0.81
O=c1c(OC2OC(CO)C(O)C(O)C2O)c(-c2ccc(O)c(O)c2)oc2cc(O)cc(O)c12 [Quercetin-3-beta-D-glucoside] | 5.53
O=C(O)c1cccc(O)c1 [3-HYDROXYBENZOATE] | 5.04
CNC(CCC(=O)O)C(=O)O (stereo not drawn) [N-METHYLGLUTAMATE] | 0.66
O=C(O)c1cc(=O)c2ccccc2[nH]1 [Kynurenic acid] | 4.67

Structure (SMILES) | LC retention time [min]
CC(=O)NC(CCCC[NH3+])C(=O)[O-] (stereo not drawn) [N-ALPHA-ACETYLLYSINE] | 0.72
O=C(O)CC(O)(CC(=O)O)C(=O)O [CITRATE] | 0.9
O=C(O)/C=C/c1ccccc1 [TRANS-CINNAMATE] | 6.96
C[Se]CCC(N)C(=O)O (stereo not drawn) [SELENOMETHIONINE] | 0.92
COC(=O)CCCCC(=O)O [mono-Methyl adipate] | 5.42
O=C(O)c1ccc(O)c(O)c1 [3-4-DIHYDROXYBENZOATE] | 3.49
NC(=O)C[C@H](N)C(=O)O [L-Asparagine] | 0.62
NC(CO)Cc1cnc[nH]1 (stereo not drawn) [HISTIDINOL] | 0.54
O=C(O)c1cc(O)cc(O)c1 [3-5-Dihydroxybenzoic acid] | 3.57
O=c1[nH]cnc2nc[nH]c12 [HYPOXANTHINE] | 0.83
Nc1ccc(C(=O)O)cc1 [4-AMINOBENZOATE] | 3.29
NC(Cc1cc(I)c(Oc2ccc(O)cc2)c(I)c1)C(=O)O [3-5-DIIODO-L-THYRONINE] | 6.31
CN(CC(=O)O)C(=N)N [CREATINE] | 0.66
O=C(OC1Cc2c(O)cc(O)cc2OC1c1cc(O)c(O)c(O)c1)c1cc(O)c(O)c(O)c1 (single isomer, unassigned; (-)) [(-)-Epigallocatechin gallate] | 5.05
CC(=O)OCC(=O)C1(O)CCC2C3CCC4=CC(=O)CCC4(C)C3C(O)CC21C (stereo not drawn) [CORTISOL 21-ACETATE] | 7.67
CC(=O)OCC(=O)C1CCC2C3CCC4=CC(=O)CCC4(C)C3CCC12C (stereo not drawn) [DEOXYCORTICOSTERONE ACETATE] | 9.25
NC(CCCC(N)C(=O)O)C(=O)O (stereo not drawn) [LL-2-6-DIAMINOHEPTANEDIOATE] | 0.6
O=C[C@H](O)[C@H](O)CO [D-(-)-Erythrose] | 0.7
O=c1ccc2ccccc2o1 [Coumarin] | 6.42
Nc1cccc2ccccc12 [1-NAPHTHYLAMINE] | 5.87
CC12CCC(=O)C=C1CCC1C2C(O)CC2(C)C(C(=O)CO)CCC12 (stereo not drawn) [CORTICOSTERONE] | 7.47
Cn1c(=O)[nH]c2ncn(C)c2c1=O [PARAXANTHINE] | 4.41
O=C(CO)C(O)C(O)C(O)CO (stereo not drawn) [SORBOSE] | 0.64
C=C1CCC(O)CC1=CC=C1CCCC2(C)C1CCC2C(C)C=CC(C)C(C)C (stereo not drawn) [VITAMIN D2] | 13.9
CC(=O)C1(O)CCC2C3CCC4=CC(=O)CCC4(C)C3C(O)CC21C (stereo not drawn) [21-Deoxycortisol] | 7.35

Structure (SMILES) | LC retention time [min]
NCCc1ccc(O)cc1 [TYRAMINE] | 1.24
C=C(C)C1CC=C(CO)CC1 [(S)-(-)-Perillyl alcohol] | 8.07
Nc1ccn(C2OC(CO)C3OP(=O)(O)OC32)c(=O)n1 (stereo not drawn) [CYTIDINE 2'-3'-CYCLIC PHOSPHATE] | 0.7
CC(=O)NCCCNCCCCNCCCN [N1-ACETYLSPERMINE] | 0.5
O=P(O)(O)OC(CO)CO [BETA-GLYCEROPHOSPHATE] | 0.67
CC(=O)C1(O)CCC2C3CCC4=CC(=O)CCC4(C)C3CCC21C (stereo not drawn) [17a-Hydroxyprogesterone] | 8.44
O=C1CC(c2ccc(O)cc2)Oc2cc(O)cc(O)c21 (stereo not drawn) [Naringenin] | 7.04
O=CCc1c[nH]c2ccccc12 [INDOLEACETALDEHYDE] | 4.34
Nc1c(O)cccc1C(=O)O [3-HYDROXYANTHRANILATE] | 3.43
NCCC(=O)NC(Cc1cnc[nH]1)C(=O)O (stereo not drawn) [CARNOSINE] | 0.59
Nc1cncc(C(=O)O)c1 [5-Aminopyridine-3-carboxylic acid] | 0.74
NC(CCOC(=O)CCC(=O)O)C(=O)O (stereo not drawn) [O-SUCCINYL-HOMOSERINE] | 0.82
O=C(O)CCCCCCCCCC(=O)O [undecanedioic acid] | 7.15
Cn1cnc2nc(N)[nH]c(=O)c21 [7-methylguanine] | 0.82
O=P(O)(O)OCC(O)CO (stereo not drawn) [GLYCEROL 3-PHOSPHATE] | 0.67
CC(C)CC(NC(=O)C1CCCN1)C(=O)O (stereo not drawn) [Pro-Leu] | 4.4
CC(=O)NCC(=O)O [N-ACETYLGLYCINE] | 0.83
NCCc1cc(O)c(O)cc1O [6-HYDROXYDOPAMINE] | 0.77
CC(=O)c1ccc(O)cc1O [2'-4'-DIHYDROXYACETOPHENONE] | 6.1
OCC1OC(O)C(O)C1O (stereo not drawn) [RIBOSE] | 0.66
O=C(O)CCc1ccc(O)cc1O [3-(2-4-Dihydroxyphenyl)propionic acid] | 4.83
O=C(O)C(=O)C(=O)O [MESOXALATE] | 2.05
Oc1ccc2[nH]ccc2c1 [5-Hydroxyindole] | 4.72

From the RepoRT retention time repository
